Assay results taken from patent US20070254324A1, “Method for determination of platelet function under flow conditions” (DADE BEHRING MARBURG GmbH, priority 2006, published 2007).

Experiments:
Format in all cases: cell-based, human
[1] = system: platelet function in whole blood; assay: Closure time under flow conditions, PFA-100 Col/ADP test cartridge; conditions: for Number of samples with closure times above the cut-off (n = 11): cut-off 115 seconds, ASA 30 μmol/L
Procedure: (§1) Venous blood was taken from 11 healthy donors and anticoagulated with sodium citrate (3.2% buffered Na citrate).
(§2) Aliquots of the citrated whole blood sample were treated in vitro with the P2Y(12) antagonist MRS 2395 (Sigma-Aldrich Chemie GmbH, Steinheim, Germany). For this purpose an ethanolic MRS 2395 stock solution (15 mg/mL) was mixed with the whole blood samples so that an end concentration of 100 μmol/L was obtained.
(§3) Further aliquots of the citrated whole blood samples were treated in vitro with the COX-1 inhibitor acetylsalicylic acid (abbr.: ASA; Sigma-Aldrich Chemie GmbH, Steinheim, Germany). For this purpose an aqueous ASA stock solution (1 mg/mL) was mixed with whole blood samples so that an end concentration of 30 μmol/L was obtained.
(§4) After addition of the reagents the blood samples were incubated at room temperature for 5 minutes.
(§5) Venous blood was taken from healthy donors and anticoagulated with sodium citrate (3.2% buffered Na citrate). The closure time determination was carried out for each whole blood sample in the PFA-100® apparatus. Samples from 186 donors were determined in duplicate with a Col/Epi PFA-100® test cartridge [see Example 1d)] and a Col/ADP PFA-100® test cartridge [see Example 1d)].
(§6) The reference ranges (normal range) for the Col/Epi closure time and the Col/ADP closure time were established in that the measurement value ranges determined in which 90% of the measurement values for the healthy subjects were found (90% central interval of the normal distribution of all measurements). This gave the following reference ranges for the closure times:
(§7) The upper reference limit of the reference range was defined as cut-off, i.e. as threshold value, for a platelet dysfunction. If the closure time of a patient sample deviates from the reference range it can indicate a platelet dysfunction. This means Col/Epi closure times that are greater than 158 seconds and Col/ADP closure times that are greater than 115 seconds indicate the presence of a platelet dysfunction within the sense of a reduced aggregation efficiency.
(§8) To determine the closure time using a Col/Epi PFA-100® test cartridge (2 μg of collagen and 10 μg of epinephrine on the partition member; 150 μm aperture diameter; Dade Behring Marburg GmbH, Marburg, Germany) and using a Col/ADP PFA-100® test cartridge (2 μg of collagen and 50 μg of ADP on the partition member; 150 μm aperture diameter; Dade Behring Marburg GmbH, Marburg, Germany) as measure of platelet function, whole blood samples described in Example 1a) were investigated in a PFA-100® apparatus (Platelet Function Analyzer-100, Dade Behring Marburg GmbH, Marburg, Germany).
(§9) Aliquots of the samples described in 1a) were taken and mixed according to the invention either with prostaglandin E1 (abbr.: PGE1) or with forskolin (both purchased from Sigma-Aldrich Chemie GmbH, Steinheim, Germany) for activating intracellular adenylate cyclases. For this purpose, the samples were mixed with an ethanolic PGE1 stock solution (0.05 mg/mL) or with an ethanolic forskolin stock solution (5 mg/mL) to reach a final concentration of 12.5 nM PGE1 or a final concentration of 1 μM forskolin. Further aliquots of the samples described in 1a) were not mixed with an activator of intracellular adenylate cyclases and served as control.
(§10) Then in each case 800 μl of the blood samples mixed with PGE1 or forskolin, or of the control samples were put into the reservoir of a Col/Epi or Col/ADP test cartridge (+37° C.) and incubated in the apparatus at +37° C. for 3 minutes. A partial vacuum of −40 mbar was generated by the apparatus, thus sucking the blood out of the reservoir through the capillary (diameter 200 μm) and finally through the opening (aperture) of the partition member into the measurement chamber. The closure time was determined as the time required until the aperture was closed by formation of a blood clot. […]

[2] = system: platelet function in whole blood; assay: Closure time under flow conditions, PFA-100 Col/Epi test cartridge; conditions: for Number of samples with closure times above the cut-off (n = 11): cut-off 158 seconds, ASA 30 μmol/L
Procedure: as §1, §2, §3, §4, §5, §6, §7, §8, §9, §10

[3] = system: platelet aggregation in platelet rich plasma; assay: ADP induced light transmission aggregometry (according to Born); conditions: 100 μmol/L MRS 2395 in vitro; PRP; 5 μM ADP
Procedure: as §1, §2, §4
In order to check whether the samples treated with MRS 2395 actually show a reduced platelet aggregation, platelet rich (PRP) and platelet poor (PPP) plasma was prepared from aliquots of the untreated and MRS 2395-treated whole blood samples described under Example 1a). Then the samples were treated with 5 μM ADP. The PPP samples were used as blank controls. The photometric measurement of the aggregation reaction was carried out in the automated coagulation apparatus BCT® (Dade Behring Marburg GmbH, Marburg, Germany) under continuous stirring (600 rpm). The platelet aggregation of the samples treated with MRS 2395 was reduced by a mean of 27% compared with the platelet aggregation of the untreated samples.

[4] = +1 μM forskolin, MRS 2395 100 μmol/L
[5] = Control (no activator), MRS 2395 100 μmol/L
[6] = normal untreated whole blood, 12.5 nM PGE1 or 1 μM forskolin
[7] = +12.5 nM PGE1, MRS 2395 100 μmol/L
[8] = +1 μM forskolin, MRS 2395 100 μmol/L, listed as ASA

Structure (SMILES) | Number of samples with closure times above the cut-off (n = 11) [1, 4] | Number of samples with closure times above the cut-off (n = 11) [1, 5] | Number of samples with closure times above the cut-off (n = 11) [2, 4] | Number of samples with closure times above the cut-off (n = 11) [2, 5] | platelet aggregation reduced compared with the untreated samples (mean) [3] [%] | prolongation of the closure times of the controls [1, 6] | prolongation of the closure times of the controls [2, 6] | Number of samples with closure times above the cut-off (n = 11) [1, 7] | Number of samples with closure times above the cut-off (n = 11) [1, 8] | Number of samples with closure times above the cut-off (n = 11) [2, 7] | Number of samples with closure times above the cut-off (n = 11) ([2]; +12.5 nM PGE1, MRS 2395 100 μmol/L, listed as ASA) | Number of samples with closure times above the cut-off (n = 11) [2, 8]
CNc1nc(Cl)nc2c1ncn2CC(COC(=O)C(C)(C)C)COC(=O)C(C)(C)C [MRS 2395, 2,2-dimethyl-propionic acid 3-(2-chloro-6-methylaminopurin-9-yl)-2-(2,2-dimethyl-propionyloxymethyl)-propyl ester] | 10 | 2 | 9 | 3 | 27 | – | – | – | – | – | – | –
CCCCC[C@H](O)/C=C/[C@H]1[C@H](O)CC(=O)[C@@H]1CCCCCCC(=O)O [prostaglandin E1] | – | – | – | – | – | Neither the amount of forskolin used nor the amount of prostaglandin E1 used led to a significant prolongation | significant prolongation | – | – | – | – | –
CC(=O)Oc1ccccc1C(=O)O [Acetylsalicylic acid, acetylsalicylic acid] | 0 | 1 | 11 | 8 | – | – | – | 4 | none | 11 | all | all
